Values of other authors as cited in patent US8163752B2, “Tricyclic anilide heterocyclic CGRP receptor antagonists” (Merck, Sharp & Dohme Corp., priority 2007, dated 2012).
No end group written: not given here.

Columns and labels:
[1] = tested on: headache induced by CGRP infusion; details: control group (Petersen et al. 2005)
[2] = tested on: acute attacks of migraine; details: clinical trials (Olesen et al. 2004)
[3] = tested on: facial blood flow; details: marmoset, electrical stimulation of the trigeminal ganglion (Doods et al. 2000)
[4] = tested on: facial blood flow; details: rat, trigeminal ganglion stimulation (Escott et al. 1995)
[5] = tested on: middle meningeal artery; details: rats, electrical stimulation of the dura mater, prior administration (Williamson et al. 1997)

Row | Compound | prevention of headache induced by CGRP infusion [1] | efficacy in treating acute attacks of migraine [2] | effect on increase in facial blood flow [3] | effect on increased facial blood flow [4] | effect on increase of middle meningeal artery diameter [5]
1 | NCCCC[C@H](NC(=O)[C@@H](Cc1cc(Br)c(O)c(Br)c1)NC(=O)N1CCC(N2Cc3ccccc3NC2=O)CC1)C(=O)N1CCN(c2ccncc2)CC1 [BIBN4096BS] | able to prevent headache induced by CGRP infusion | effective in treating acute attacks of migraine | could be blocked | – | –
2 | CGRP(8-37): a peptide CGRP antagonist; fragment of CGRP that lacks seven N-terminal amino acid residues (VTHRLAGLLSRSGGVVKNNFVPTNVGSKAF; ends and bridges not checked; UniProt P06881 90-119, looked up, fragment) | – | – | – | inhibited | blocked
